Reference: publication PMC4413848, “Antibacterial activity of alkyl gallates is a combination of direct targeting of FtsZ and permeabilization of bacterial membranes” (Frontiers in Microbiology, 2015)

Assays:
FtsZ [1] = molecular target: T1, FtsZ (Bacillus subtilis, UniProt P17865); experiment: fluorescence titration with purified FtsZ (poorer fit, R^[…] = […]); also GTPase inhibition and sedimentation; assay type: binding
T1 sequence (P17865 1-382): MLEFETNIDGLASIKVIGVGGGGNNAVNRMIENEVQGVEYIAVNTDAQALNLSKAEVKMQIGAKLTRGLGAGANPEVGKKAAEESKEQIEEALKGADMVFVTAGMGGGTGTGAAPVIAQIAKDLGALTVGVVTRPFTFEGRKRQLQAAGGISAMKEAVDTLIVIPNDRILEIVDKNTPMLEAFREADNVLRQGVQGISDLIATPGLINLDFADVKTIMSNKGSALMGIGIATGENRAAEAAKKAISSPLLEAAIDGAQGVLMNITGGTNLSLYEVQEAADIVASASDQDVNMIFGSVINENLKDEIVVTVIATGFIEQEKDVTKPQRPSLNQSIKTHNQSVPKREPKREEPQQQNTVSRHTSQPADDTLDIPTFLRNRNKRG

FtsZ [2] = molecular target: T1, FtsZ; experiment: malachite green GTPase assay at […] with Triton X-100 (Kd could not be calculated); assay type: biochemical
FtsZ [3] = molecular target: T1, FtsZ; experiment: fluorescence titration (intrinsic alkyl gallate fluorescence) with purified FtsZ; also GTPase inhibition and sedimentation; assay type: binding

SMILES	Kd (FtsZ [3]) [nM]	also measured
CCCCCOC(=O)c1cc(O)c(O)c(O)c1 [compound 8, Pentyl gallate]	–	Kd (FtsZ [1]): ~3100 nM
CCCCCCOC(=O)c1cc(O)c(O)c(O)c1 [compound 9, Hexyl gallate]	–	malachite green GTPase assay at 50 μg/mL with Triton X-100 (Kd could not be calc) (FtsZ [2]): All of the compounds showed similar levels of inhibition of the GTPase activity of FtsZ.
CCCCCCCOC(=O)c1cc(O)c(O)c(O)c1 [compound 10, Heptyl gallate]	80 ± 30	–
CCCCCCCCOC(=O)c1cc(O)c(O)c(O)c1 [compound 11, Octyl gallate]	840 ± 220	–
